Data reported in EP2813566A1, “Method for incorporating a compound into live yeast cells” (priority 2013, dated 2014).
Counter-ions that a name gives are not always drawn.

How the values were obtained:
Assay type in all cases: cell-based
[1] = system: Escherichia coli (Migula1895) Castellani and Chalmers 1919AL, ATCC10536; assay: Kirby-Bauer Disk Diffusion method, Escherichia coli reference strain; details: for inhibition zone: 25-41-52-41°C
Description: The culture medium is Nutrient agar (Oxoid CM3) in g/litre Lab-Lemco beef extract 1; Yeast extract 2; Peptone 5; NaCl 5; Agar 15; pH7.4
(§1) For experimental purposes, the antimicrobial activities of the antibiotic standard solution of known concentration, of the yeasts within their incorporation broth after the methods steps, of the supernatants collected by centrifugation and of the pellets of the centrifuged yeasts, after each washing cycle, were compared, using a Kirby-Bauer Disk Diffusion method.
(§2) Sterile filter or blotter paper disks were laid down on the gelose, humidified with PBS 3 µl. 6 to 12µl of each above-mentioned fraction were then sucked into the blotting paper disk.

[2] = system: Streptococcus pyogenes Rosenbach 1884AL, ATCC12344; assay: Kirby-Bauer Disk Diffusion method, Streptococcus pyogenes reference strain; details: for inhibition zone diameter: Saccharomyces Lalvin
Description: Streptococcus pyogenes Rosenbach 1884AL, ATCC12344 comes from the BCCM-LMG Bacteria collection, accession number 21599, laboratorium voor microbiologie, UGent, B-9000 Gent. The culture medium is Brain Heart Infusion Broth of typical composition (g/litre) (brain extract, heart extract and peptones 27.5; D+glucose 2.0; sodium chloride 5.0; di-sodium hydrogen phosphate 2.5; agar-agar (not present in the broth) 15.0. Brain Heart Infusion Agar was purchased from Oxoid CM 0375. The medium may be enriched with a sterilized horse serum from defibrinated horse blood for 20 % of global volume. Brain Heart Infusion SM 225 from Oxoid may also be employed for streptococcus culture broth.
as §1
(§3) The selected reference strains were Streptococcus pyogenes Rosenbach1884AL (BCCM-LMG 21599) or Lactobacillus paracasei subsp. paracasei Collins, Phillips and Zanoni 1989 VP (BCCM-LMG 9192).
(§4) The streptococci or lactobacilli reference strains populations were counted in a Neubauer cell, and then diluted in PBS so as to obtain 2 million germs in one ml buffer: 0.5 ml of the diluted culture medium were then streaked on the agar plates. Another method for obtaining the suitable density of reference bacteria is the culture medium dilution in PBS so as to obtain with a filter photometer, an optical density of 0.04 at 620nm.
as §2

[3] = system: Lactobacillus paracasei subsp. paracasei; assay: Kirby-Bauer Disk Diffusion method, Lactobacillus paracasei reference strain
Description: Lactobacillus paracasei subsp. paracasei Collins, Phillips and Zanoni 1989 VP, type strain of Lactobacillus casei subsp. pseudoplantarum, came from the BCCM-LMG Bacteria collection, accession number 9192, ATCC 25598, depositor NCIMB. Lactobacillus kefiri Kandler and Kunath 1983VL, BCCM-LMG Bacteria collection, accession number 9480, ATCC 35411. A modified Man, Rogosa, Sharpe medium has been used for the Lactobacillus kefiri and for Lactobacillus paracasei culture, as a reference strain for antibiotic activity of the yeast strains: the composition (g/liter) peptone 10.0; meat extract 8.0; yeast extract 4.0; glucose 20.0; orthophosphate 2.0; magnesium sulphate heptahydrate 0.2; manganese sulphate tetrahydrate 0.05; ferrous sulphate 0.01; agar 10.0 The pH is adjusted to 6.2 with acetic acid.
as §1, §3, §4, §2

[4] = system: Streptococcus pyogenes or Lactobacillus paracasei; assay: Kirby-Bauer Disk Diffusion method, reference strain not stated for the experiment; details: Saccharomyces bayanus Lalvin, red grape juice + Potato Plus Juice, clarithromycin 2mg/ml, pH 4.0
Description: as §1, §3, §4, §2

In the case of `CS(=O)(=O)c1ccc([C@@H](O)[C@@H](CF)NC(=O)C(Cl)Cl)cc1` [Florfenicol], the inhibition zone ([1]; Saccharomyces bayanus Lalvin and Saccharomyces cerevisiae combined, red grape juice medium, florfénicol 2mg/ml, pH 7.5, 20µl deposit) was 39 mm.

With `O=C1CN(/N=C/c2ccc([N+](=O)[O-])o2)C(=O)N1` [Standard nitrofurantoin in DMSO, 1mg/ml, Nitrofurantoin] the Inhibition zone diameters ([1]; 20µl deposits, Saccharomyces cerevisiae bayanus Lalvin QA23, nitrofurantoin, pH around 7.0, 90minutes 41°C, 60minutes 52°C) was 32 mm.

In the case of `CC[C@H]1OC(=O)[C@H](C)[C@@H](O[C@H]2C[C@@](C)(OC)[C@@H](O)[C@H](C)O2)[C@H](C)[C@@H](O[C@@H]2O[C@H](C)C[C@H](N(C)C)[C@H]2O)[C@](C)(O)C[C@@H](C)C(=O)[C@H](C)[C@@H](O)[C@]1(C)O` [Erythromycin standard (2mg/ml), Erythromycin], the inhibition zone ([2]; Saccharomyces bayanus Lalvin, red grape juice + alkaline hydrolyzed spelt wheat flour + parsley juice, erythromycin 1mg/ml, pH 7.0, 25-41-52-41-35-25°C, violet photoinduction, BHI agar with defibrinated horse blood) was 48 mm.

In the case of `CC[C@H]1OC(=O)[C@H](C)[C@@H](O[C@H]2C[C@@](C)(OC)[C@@H](O)[C@H](C)O2)[C@H](C)[C@@H](O[C@@H]2O[C@H](C)C[C@H](N(C)C)[C@H]2O)[C@](C)(OC)C[C@@H](C)C(=O)[C@H](C)[C@@H](O)[C@]1(C)O` [Clarithromycin standard (2mg/ml), clarithromycin], the inhibition zone diameter ([3]; Saccharomyces Lalvin, YPD broth pH 6.5, clarithromycin 2mg/ml, experiment with lethal heat stress 25-34-55-34-25°C) was 40.5 mm, the inhibition zone ([3]; Saccharomyces Lalvin, clarithromycin 2mg/ml, pH 4.0, 25-41-43-35-25°C) was 41 mm and the inhibition zone ([3]; Saccharomyces Lalvin, clarithromycin 2mg/ml, pH 4.0, 25-41-45-35-25°C) was 41 mm. It also gave an inhibition zone ([3]; Saccharomyces Lalvin, clarithromycin 2mg/ml, pH 4.0, 25-41-47-35-25°C) of 38.5 mm, an inhibition zone ([3]; Saccharomyces Lalvin, clarithromycin 2mg/ml, pH 4.0, 25-41-49-35-25°C) of 40 mm and an inhibition zone ([3]; Saccharomyces Lalvin, clarithromycin 2mg/ml, pH 4.0, 25-41-51-35-25°C) of 40 mm. It also gave an inhibition zone ([3]; Saccharomyces Lalvin, clarithromycin 2mg/ml, pH 4.0, 25-41-53-35-25°C) of 40 mm, an inhibition zone ([3]; Saccharomyces Lalvin, clarithromycin 2mg/ml, pH 4.0, 25-41-54-35-25°C) of 40 mm and an inhibition zone ([3]; Saccharomyces Lalvin, red grape juice + Potato Plus Juice, clarithromycin 2mg/ml, pH 4.0, 25-41-41-35-25°C (upper plate 41°C)) of 41 mm. It also gave an inhibition zone diameter ([3]; Saccharomyces Lalvin, red grape juice + raw potatoes juice with selenium, clarithromycin 2mg/ml, pH 4.0, 25-41-52-41-35-25°C, 8µl on disk) of 38 mm, an inhibition zone ([3]; Saccharomyces bayanus Lalvin QA23, red grape juice + raw potatoes juice with selenium, clarithromycin 2mg/ml, pH 4.0, 25-41-52-41-35°C, skullcap extract after 35°C plate) of 42 mm and an inhibition zone ([3]; Saccharomyces bayanus Lalvin, clarithromycin 2mg/ml, pH 6.5, after sequence 25-41-52-41-35-25°C (last thermal plate), 8µl) of 38.5 mm. For the same compound, the inhibition zone ([3]; Saccharomyces bayanus Lalvin, medium a: red grape juice + Potato Plus Juice, clarithromycin 2mg/ml, pH 4.0, 25-41-52-41-35-25°C, violet photoinduction) was 39.5 mm, the inhibition zone ([3]; Saccharomyces bayanus Lalvin, medium c: red grape juice + Potato Plus Juice + spelt wheat hydrolysate, clarithromycin 2mg/ml, pH 6.5, 25-41-52-41-35-25°C, violet photoinduction) was 36.5 mm and the inhibition zone ([4]; after sequence 25-35-52-41°C (last thermal plate)) was 42 mm. The inhibition zone ([4]; after sequence 25-39-52-41°C (last thermal plate)) was 42 mm, the “inhibition zone in diameter” value ([2]; Kluyveromyces marxianus + Lactobacillus kefiri, red grape juice + sweet potatoes juice with selenium, clarithromycin, pH 4.0, 25-41-52-41°C, violet photoinduction) was 47 mm and the inhibition zone diameter ([2]; YPD broth pH 6.5, clarithromycin 2mg/ml, simplified sequence 25-37-25°C (mild heat stress)) was 38 mm. It also gave an inhibition zone diameter ([2]; red grape juice + raw potatoes juice with selenium, clarithromycin 2mg/ml, pH 4.0, thermal plates 25-41-52-41-35-25°C, 8µl on disk) of 37 mm.

Work on `NCC[C@H](O)C(=O)N[C@@H]1C[C@H](N)[C@@H](O[C@H]2O[C@H](CN)[C@@H](O)[C@H](O)[C@H]2O)[C@H](O)[C@H]1O[C@H]1O[C@H](CO)[C@@H](O)[C@H](N)[C@H]1O` [Amikacine sulfate standard in TBS, Amikacine sulphate] yielded an inhibition zone ([1]; Kluyveromyces marxianus, red grape juice + potatoes juice with selenium, Amukin 1mg/ml, pH 4.0, violet photoinduction) of 26.5 mm.
